Assay results reported in US12174192B2, “Methods for detecting and treating cancers having adenosine pathway activation” (Corvus Pharmaceuticals, Inc., priority 2018, dated 2024).
Entries after “also recorded” stand apart in the source; their conditions may differ.

Tests used:
[1] = test system: advanced cancers; assay: Ongoing phase 1/1b trial of CPI-444 monotherapy in patients with advanced cancers; assay type: in vivo, human
Source text: “Adenosine receptor antagonist” refers to a molecule that inhibits activity of adenosine receptors (e.g. A2A or A2B receptors), typically through direct action. Adenosine receptors antagonists can be small or large molecule antagonists. In embodiments, CPI-444 is an example A2A receptor antagonist. […] CPI-444 is described, for example, in PCT Patent Publication No. WO 2017/112917; each of which is incorporated herein by reference in its entirety.

[2] = test system: IL6 and IL8; assay: Plasma IL6 and IL8 protein levels in RCC patients after CPI-444 treatment; assay type: in vivo, human; settings: RCC patients with reduction in tumor size (best response); after treatment (4 weeks)
[3] = test system: A2AR; assay: In vitro A2AR stimulation gene signature and its inhibition by CPI-444; assay type: cell-based, human; settings: transcript and protein level
Experimental: RNA purified from normal, healthy human peripheral blood mononuclear cells (PBMCs) treated with 5′-N-ethylcarboxamidoadenosine (NECA) and activated with anti-CD3/CD28 antibody were analyzed by NanoString hybridization-based quantification (NanoString Technologies, Inc.). […] Each dot represents the expression level of a specific gene. Dot shade represents the concentration of NECA used and/or different PBMC donors. […] Increases in monocyte/macrophage inflammatory mediators such as IL-1b and CCL2,3,7,8, 20 were also observed, as were increases in SERPINB2, S100A8, PTGS2, THBS1. Expression of CXCL10 and GZMB were decreased, consistent with a suppressed IFNg response. […] A2AR agonists induce a specific gene signature (increase in a certain subset of genes and/or decrease in a second subset of genes) dominated by immunosuppressive mediators of MDSC and monocyte/macrophage biology. Inhibition of these genes by CPI-444 are observed. These gene signatures may be used as biomarkers for patient selection.

[4] = test system: PBMCs; assay: CXCL5 protein ELISA in culture supernatants of PBMCs treated with NECA +/- CPI-444; assay type: cell-based; settings: PBMCs from two human donors
Experimental: Expression of CXCL5 was determined by ELISA 2 days after activation.
FIGS. 2B and 2C show the response of PBMCs from two different donors to NECA+/−CPI-444 treatment. DMSO was used as vehicle control. […] This control helps establish that the induction of CXCL5 is specific to signaling through adenosine receptors.
NECA activation of CXCL5 protein expression was evaluated. PBMCs were harvested from two different human donors. […] CPI-444 (Corvus Pharmaceuticals) is an antagonist of the adenosine A2A receptor. CXCL5 protein in the culture supernatants was evaluated by ELISA two days after activation. CXCL5 expression is activated by NECA. […] This establishes that the induction of CXCL5 is specific to signaling through adenosine receptors.

[5] = test system: adenosine-modulated genes and proteins; assay: Adenosine-induced genes and proteins in tumor biopsies from treated patients; parameters: species or system human; settings: in vitro and in vivo in tumor biopsies from treated patients
Source text: Expression of a subset of genes that are modulated by adenosine levels correlates with tumor regression in the ongoing Ph 1/1b trial with CPI-444 treatment in RCC. […] A2AR agonists induce a specific gene signature dominated by immunosuppressive mediators of MDSC and monocyte/macrophage biology. […] These genes and proteins may identify patients with high levels of adenosine and be used as biomarkers for patient selection to select patients most likely to respond to therapy with agents that antagonize adenosine production or signaling.

[6] = test system: renal tumors (RCC); assay: Change in tumor size in renal cancer patients treated with CPI-444 (Ph 1/1b trial); assay type: in vivo, human
Experimental: Methods: Tumor biopsies obtained at trial screening from patients with RCC (n=30) were analyzed for gene expression profiles with the Nanostring PanCancer Immune Panel that included 770 markers of immune activity and inflammation. The gene expression correlation (Spearman) matrix was hierarchically clustered (Ward's method) to identify modules of genes that were co-expressed across tumors. Gene expression was normalized to housekeeper genes included in the PanCancer Immune Panel. Gene cluster expression intensity was compared between patients with evaluable best change in tumor size ≤0 (n=8) vs >0 (n=15). The composite gene expression score was calculated as the average of the Log2 of expression values (normalized Nanostring counts) for seven genes (CXCL1, CXCL2, CXCL3, CXCL5, IL1B, IL8, SERPINB2) shown to be induced in vitro in normal peripheral blood mononuclear cells by adenosine. Protein expression was determined from blood (plasma) samples from baseline (untreated) renal cell carcinoma (RCC) patients using MesoScale assay.
Renal cancer patients were treated with CPI-444, and change in tumor size was measured.

[7] = test system: human peripheral blood mononuclear cells (PBMCs); assay: NanoString mRNA quantification in NECA-treated, anti-CD3/CD28-activated PBMCs; assay type: cell-based; settings: 0.1 μM, 1 μM, and/or 10 μM NECA vs vehicle-treated control
Experimental: (§1) RNA purified from normal, healthy human peripheral blood mononuclear cells (PBMCs) treated with 5′-N-ethylcarboxamidoadenosine (NECA) and activated with anti-CD3/CD28 antibody were analyzed by NanoString hybridization-based quantification (NanoString Technologies, Inc.). […] Each dot represents the expression level of a specific gene. Dot shade represents the concentration of NECA used and/or different PBMC donors.

[8] = test system: human peripheral blood mononuclear cells (PBMCs); assay: RNA sequencing (RNA-Seq) of NECA-treated, anti-CD3/CD28-activated PBMCs; assay type: cell-based
Experimental: as §1, with “donors. […] Data were confirmed by RNA sequencing (RNA-Seq).” for “donors.”

## Cc1ccc(-c2nc(N)nc3c2nnn3Cc2cccc(CO[C@H]3CCOC3)n2)o1 [CPI-444, (S)-7-(5-methylfuran-2-yl)-3-((6-(((tetrahydrofuran-3-yl)oxy)methyl)pyridin-2-yl)methyl)-3H-[1,2,3]triazolo[4,5-d]pyrimidin-5-amine]
[1]
  anti-tumor activity as a monotherapy: demonstrated anti-tumor activity
[2]
  IL6 and IL8 levels in blood plasma after treatment: reduced; also recorded: decreased
[3]
  A2AR stimulation-induced gene expression changes, effect of CPI-444: inhibited these changes
[4]; NECA then CPI-444 then anti-CD3/CD28, two days after activation
  NECA-induced increase in CXCL5 protein (ELISA), effect of added CPI-444: blocked
[5]
  adenosine agonist-induced genes and proteins, effect of CPI-444: Inhibition of these genes and proteins
[6]; RCC patients, vs low levels of CD68 or CD163
  response to CPI-444 monotherapy, patients with high CD68 or high CD163 gene levels in the tumors: more likely to respond
[6]; ongoing Ph 1/1b trial, RCC, vs patients with low expression
  tumor regression with CPI-444, patients with high expression of adenosine-modulated gene subset: more likely to have tumor regression
[6]; patients with RCC, two subjects
  reduction in tumor size (best overall change) after CPI-444 treatment: greater than 30%
[6]; renal cancer patients
  change in tumor size after CPI-444 treatment, tumors with low composite gene expression score: tumor regression was not observed
  response to CPI-444, patients with high CCL20 and low CX3CL1 plasma protein levels: more likely to respond
[6]; renal cancer patients, four patients
  change in tumor size after CPI-444 treatment, tumors with high composite gene expression score: reduction in tumor size

## CCNC(=O)[C@H]1O[C@@H](n2cnc3c(N)ncnc32)[C@H](O)[C@@H]1O [NECA, 5′-N-ethylcarboxamidoadenosine]
[7]
  logFC CD14 expression: 0.4485
  logFC CD86 expression: 0.3148
  logFC CLEC5A expression: 0.3833
  logFC CXCL1 expression: 0.6909
  logFC CXCL2 expression: 1.093
  logFC CXCL3 expression: 1.101
  logFC CXCL5 expression: 1.338
  logFC CXCL6 expression: 0.6535
  logFC IL1A expression: 0.6367
  logFC IL1B expression: 0.6345
  logFC IL6 expression: 0.7014
  logFC IL8 expression: 0.6411
  logFC IL23A expression: 0.4628
  logFC IL24 expression: 0.5768
  logFC PLAUR expression: 0.5031
  logFC PPBP expression: 0.683
  logFC PTGS2 expression: 0.6892
  logFC SLC11A1 expression: 0.7022
  logFC TBX21 expression: −0.1238
  logFC THBS1 expression: 0.8703
[4]; two days after anti-CD3/CD28 activation, DMSO vehicle control
  CXCL5 protein in culture supernatants (ELISA), effect of NECA: activated; also recorded: dose-dependent increase in CXCL5
[8]; Control (DMSO) vs 0.1 μm NECA
  logFC CCL24 expression: −1.068
  logFC CD93 expression: 0.9975
  logFC CSF3 expression: 1.603
  logFC CXCL2 expression: 1.452
  logFC CXCL3 expression: 1.694
  logFC CXCL5 expression: 2.388
  logFC EHF expression: −0.2753
  logFC EML6 expression: 0.2117
  logFC EPB41L3 expression: 1.183
  logFC FUT7 expression: −0.2135
  logFC HAS1 expression: 2.059
  logFC IL23A expression: 0.7971
  logFC INHBA expression: 0.5196
  logFC KLC4 expression: 0.216
  logFC LAYN expression: 0.4228
  logFC MRPL11 expression: −0.19
  logFC MS4A7 expression: 0.9319
  logFC NPR1 expression: 0.7892
  logFC OST4 expression: −0.2352
  logFC PADI2 expression: 0.4802
  logFC PTGS2 expression: 1.184
  logFC SLC7A7 expression: 0.5935
  logFC SPON1 expression: 0.3611
  logFC ST6GALNAC2 expression: 0.5342
  logFC SYTL3 expression: 0.2894
  logFC WDR83OS expression: −0.2872
  logFC ZBTB18 expression: 0.2431
[8]; Control (DMSO) vs 1 μm NECA
  logFC CCDC60 expression: 0.07658
  logFC CD93 expression: 1.454
  logFC CSF3 expression: 2.802
  logFC CXCL2 expression: 2.361
  logFC CXCL3 expression: 2.573
  logFC CXCL5 expression: 3.451
  logFC EHF expression: −0.2522
  logFC EMR3 expression: 1.364
  logFC EPB41L3 expression: 1.854
  logFC EREG expression: 1.89
  logFC FUT7 expression: −0.4158
  logFC GPR157 expression: 0.9283
  logFC HAS1 expression: 3.238
  logFC IL23A expression: 1.363
  logFC IL24 expression: 2.876
  logFC INHBA expression: 0.9638
  logFC LAYN expression: 0.5277
  logFC MS4A7 expression: 1.535
  logFC OST4 expression: −0.1747
  logFC PADI2 expression: 0.7173
  logFC PID1 expression: 1.729
  logFC PTGS2 expression: 2.23
  logFC SLC7A7 expression: 0.9514
  logFC SPON1 expression: 0.5667
  logFC ST6GALNAC2 expression: 0.8306
  logFC TGIF1 expression: 0.4769
  logFC ZBTB18 expression: 0.3385
[8]; Control (DMSO) vs 10 μm NECA
  logFC CCNE1 expression: −0.4518
  logFC CD93 expression: 1.895
  logFC CD300E expression: 1.71
  logFC CSF3 expression: 3.508
  logFC CXCL2 expression: 3.011
  logFC CXCL3 expression: 3.106
  logFC CXCL5 expression: 3.354
  logFC DFNA5 expression: 0.6559
  logFC ECEL1 expression: 0.6918
  logFC EPB41L3 expression: 2
  logFC GALM expression: −0.3189
  logFC GBP6 expression: −0.8039
  logFC GPR157 expression: 1.139
  logFC HAS1 expression: 3.807
  logFC IL5 expression: −0.6885
  logFC IL23A expression: 1.332
  logFC INHBA expression: 1.192
  logFC LAP3 expression: −0.4286
  logFC LOC100505585 expression: 0.6639
  logFC NID1 expression: 1.087
  logFC PADI2 expression: 0.9386
  logFC PID1 expression: 2.124
  logFC PTGS2 expression: 2.349
  logFC RHCG expression: 0.5767
  logFC SLC7A7 expression: 0.9134
  logFC SPON1 expression: 0.568
  logFC ST6GALNAC2 expression: 0.876
